# Measured values reported in patent US9296760B2, “Antibacterial compounds” (JANSSEN SCIENCES IRELAND UC, priority 2012, dated 2016).
# Assays:
# [1] = molecular target: T1, S. aureus ATCC 29213 FabI (Staphylococcus aureus, UniProt Q6GI75); assay: Staphylococcus aureus FabI enzyme inhibition assay; type: biochemical; conditions: NADH consumption, 30 minutes, read-out: FabI (300.235) IC50 (converted)
# T1 sequence (Q6GI75 1-256): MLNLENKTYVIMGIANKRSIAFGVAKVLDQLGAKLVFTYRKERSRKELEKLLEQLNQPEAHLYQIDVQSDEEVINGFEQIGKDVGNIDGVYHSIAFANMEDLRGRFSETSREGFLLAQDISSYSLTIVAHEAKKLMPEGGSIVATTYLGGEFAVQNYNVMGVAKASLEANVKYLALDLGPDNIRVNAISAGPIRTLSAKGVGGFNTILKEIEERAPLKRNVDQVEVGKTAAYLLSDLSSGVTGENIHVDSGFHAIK
# Protocol: Y.1 FabI Enzyme Inhibition: Staphylococcus aureus FabI Enzyme Inhibition Assay
# FabI enzyme inhibition assays were carried out in half-area, 384-well microtitre plates. […] The reaction mixtures were incubated for 30 minutes at room temperature and the reaction was stopped by adding 200 mM Tris buffer (pH 9.0) to create a pH-shift. The consumption of NADH was monitored by measuring the change in absorbance at […]. By comparing sample readings to those of negative (absence of compound) and positive (absence of enzyme) controls, the percent inhibition of enzymatic activity of the compounds was determined A best-fit curve is fitted by a minimum of squares method. From this an IC50-value (expressed in μg/ml), resulting in 50% inhibition of enzymatic activity, was obtained.
# [2] = test system: Staphylococcus aureus ATCC 29213; assay: Antibacterial susceptibility testing, IC90 determination (broth microdilution, resazurin); type: cell-based; conditions: Staphylococcus aureus, ATCC29213, S. aureus ATCC 29213; 90% inhibitory concentration for bacterial growth; read-out: STA (361.159) IC90
# Protocol: Y.2 In Vitro Method for Testing Compounds for Antibacterial Activity Against Various Bacterial Strains
# Preparation of Bacterial Suspensions for Susceptibility Testing
# The following bacteria were used: Staphylococcus aureus ATCC 29213, methicillin-resistant Staphylococcus aureus (MRSA) ATCC 700788 and Escherichia coli ATCC 35218. The bacteria used in this study were grown overnight in flasks containing 100 ml Mueller-Hinton broth (Difco cat. nr. 0757-17) in sterile de-ionized water, with shaking, at 37° C. Stocks were store at −70° C. until use.
# Bacteria were incubated on a tryptic soy agar plate containing 5% sheep blood (Becton Dickinson cat. nr. 254053) for 18-24 hours at 35° C. in aerobic conditions (first passage). For the second passage, fresh Mueller-Hinton broth is inoculated with 5-10 colonies and grown overnight at 35° C. until turbidity (reaching log-phase) in aerobic conditions is reached. The bacterial suspension is then adjusted to 0.5 McFarland density and further diluted 1:100 in Mueller Hinton broth medium. This is used as inoculum.
# The result(s) are depicted the table below (for STA ATCC 29213).
# Antibacterial Susceptibility Testing: IC90 Determination
# (§1) MIC assays were performed by the broth microdilution method in a 96-well format (flat-bottom microtitre plates) with a final volume of 0.1 ml Mueller Hinton broth containing two-fold serial dilutions of compounds and inoculated with 5×10^5 CFU/ml of bacteria (standard inoculum size according to CLSI guidelines). Inhibitors are typically varied over the range of 63 to 0.49 μM. The final DMSO concentration in the assay was 1.25% (maximum tolerable DMSO concentration=6%). In the assays where the effect of human serum on the activity of the compounds against S. aureus was tested, human serum was added at a final concentration of 10%. The plates were incubated at 35° C. for 16-20 hours. At the end of incubation the bacterial growth was quantified fluorometrically. For this, resazurin was added to all wells and the plates were re-incubated. The incubation time is dependent on the type of bacteria. A change in color from blue to pink indicated the growth of bacteria. The fluorescence was read in computer-controlled fluorometer (Fluoroskan Ascent FL, Labsystems) at an excitation wavelength 540 nm and an emission wavelength of 590 nm. The % growth inhibition achieved by the compounds was calculated according to standard methods. The IC90 (expressed in μg/ml) was defined as the 90% inhibitory concentration for bacterial growth. A panel of reference compounds were simultaneously tested for QC approval.
# S. aureus = assay: Antibacterial susceptibility testing, IC90 determination with 10% human serum; type: cell-based, Staphylococcus aureus; conditions: Staphylococcus aureus, S. aureus with human serum at final concentration of 10%; read-out: STA + 10% HS (361.169) IC90
# Protocol: as §1, with “Antibacterial Susceptibility Testing: IC90 Determination MIC” for “MIC”, “approval. The results are depicted in the table(s) below (STA+10% HS).” for “approval.”
# Cytotoxicity MTT assay = type: cell-based, Human; conditions: human, HelaM cells, read-out: HELAM (222.125) CC50
# Protocol: Cytotoxicity of the compounds was evaluated using the MTT assay. Human HelaM cells grown in 96-well plates were exposed to serial dilutions of the tested compounds (final volume of 0.2 ml) and incubated for 72 hours at 37° C. and 5% CO2 Inhibitors are typically varied over the range of 25 to 0.8 μM. The final DMSO concentration in the assay is 0.5%. MTT (3-(4,5-Dimethylthiazol-2-yl)-2,5-diphenyltetrazolium bromide, a tetrazole) was added and reduced to purple formazan only in living cells. Solubilization of the formazan crystals was achieved by adding 100 μl 2-propanol. Cell viability was determined by measuring the absorbance of the reduced formazan, giving a purple color, at 540 nm and 690 nm. The absorbance measured at 690 nm was automatically subtracted from the absorbance at 540 nm, to eliminate the effects of non-specific absorption. The percent cytotoxicity achieved by the compounds was calculated according to standard methods. Cytotoxicity is reported as CC50, the concentration that causes a 50% reduction in cell viability.
# The results are depicted in the table(s) below (HELAM).
SMILES,melting point [°C],IC50 [1] [nM],IC90 [2] [µg/mL],IC90 (S. aureus) [µg/mL],CC50 at 72 h (Cytotoxicity MTT assay) [µg/mL]
O=C1Nc2ncc(/C=C/C(=O)N3CCC=C(c4ccccc4)CC3)cc2CN2CCSCC12 (stereo not drawn) [Compound K1],224,–,–,–,–
O=C(Nc1ccc(/C=C/C(=O)N2CCC=C(c3ccccc3)CC2)cn1)c1cccnc1 [compound 1],186,730,0.4,0.84,0.43
O=C(Nc1ccc(/C=C/C(=O)N2CCC=C(c3ccccc3)CC2)cn1)c1ccoc1 [compound 2],156,1190,0.44,1.43,> 10.4
COc1ccc(F)cc1C1=CCCN(C(=O)/C=C/c2ccc(NC(=O)c3cccnc3)nc2)CC1 [compound 3],122,1630,0.45,1.68,1.13
Cn1cc(C(=O)Nc2ccc(/C=C/C(=O)N3CCC=C(c4ccccc4)CC3)cn2)cn1 [compound 4],–,1400,0.63,1.66,3.94
COc1ccc(F)cc1C1=CCCN(C(=O)/C=C/c2ccc(NC(=O)c3cncc(C)c3)nc2)CC1 [compound 5],120,1790,0.66,2.83,7.8
CC(=O)Nc1ccc(/C=C/C(=O)N2CCC=C(c3ccccc3)CC2)cn1 [compound 6],152,~802,0.69,1.9,> 9.08
O=CNc1ccc(/C=C/C(=O)N2CCC=C(c3ccccc3)CC2)cn1 [compound 7],–,662,0.78,1.25,7.18
Cc1occc1C(=O)Nc1ccc(/C=C/C(=O)N2CCC=C(c3ccccc3)CC2)cn1 [compound 8],192,2130,0.84,6.7,5.64
O=C(Nc1ccc(/C=C/C(=O)N2CCC=C(c3ccccc3)CC2)cn1)c1ccccc1 [compound 9],158.31,1820,0.85,6.26,4.24
Cn1nccc1C(=O)Nc1ccc(/C=C/C(=O)N2CCC=C(c3ccccc3)CC2)cn1 [compound 10],138,1920,0.92,2.07,5.44
O=C(Nc1ccc(/C=C/C(=O)N2CCC=C(c3ccccc3)CC2)cn1)c1c[nH]cn1 [compound 11],120,1620,1.26,3.17,> 10.4
